Data set [1] relates to carrageenin edema in rat's paw. Nature of the data set: Carrageenin Edema Test in Rat's Paw (anti-inflammatory activity). The data set is classed as in vivo, Female Wistar rats. The settings on record: for inhibition in vivo at 100 mg/kg: Rattus norvegicus, hydrochloric acid salts; for Inhibition values compared with comparative compounds: Table 1, 100 mg/kg. Here is the method: A standard method of Carrageenin Edema Test in Rat's Paw described in C. A. Winter et al., Proc. Soc. Exp. Biol. Med., 111, 544 (1962) was employed.
[…] One hour later, the pad of a hind paw of the rat was injected with 0.1 ml of 1% aqueous carrageenin solution. The volume of the paw was measured both before the injection of carrageenin and three hours after the injection.
The edema inhibition percentage of the test compound was calculated from the ratio of the increase in the volume of the affected paw of the test animals to the increase in the volume of the affected paw of the controls.
The anti-inflammatory activity of the 3-aminoindazole derivative hydrochloric acid salts of this invention was measured.
The anti-inflammatory activity of the 3-aminoindazole derivative hydrochloric acid salts obtained by Examples 1-49 of this invention was measured by the standard method of carrageenin edema test. In these tests, the amount of the administration of the salts was 100 mg/kg. The results are shown in Table 17 (Inhibition (%) was measured three hours after the injection).

Data set [2] is described as follows: Acute toxicity (LD50), intravenous injection. The settings on record: mouse, in vivo, male ddY-strain mice, read-out: LD50, Table 19. Here is the method:
Acute toxicity was measured by an ordinary method described in Finney DJ Probit Analysis Cambridge University Press 48, (1952). Ddy mice weighing about 18 g on average, each group consisting of 10 animals, were […] injected with the physiological salt solution containing the test compound. The amount of the test compound administered was varied in 5-8 groups. Three days after the administration, dead animals were counted in each group. The amount of the test compound killing half the number of the animals (LD50) was calculated from the results.
The acute toxicity of the 3-aminoindazole derivatives and their hydrochloric acid salts obtained by Examples 1-49 of this invention was measured by giving male ddY-strain mice an intravenous injection.

The mark [3] stands for this setting: po, 3 h, 100 mg/kg, measured three hours after the injection, read-out: Inhibition (carrageenin edema), Table 17.
The mark [4] stands for this setting: 100 mg/kg, oral, 3 h after carrageenin, read-out: Inhibition (carrageenin edema), Table 1.

Experimental findings from patent US4549023A, “3-Aminoindazole derivatives” (priority 1980, dated 1985) are described below.

Read-outs that look alike come from different tables or passages of the source.

For `c1ccc2c(NCCN3CCCCC3)n[nH]c2c1` [Compound (1), 3-(2-piperidinoethylamino)indazole], the inhibition in vivo at 100 mg/kg in data set [1] (setting [3]) was determined as 48%. For the same molecule, the 50% lethal dose (LD50) (usually the dose at which mortality reaches 50%) at 72 h in data set [2] turned out to be 146 mg/kg.

For the molecule `c1ccc2c(NCCCCCCN3CCCCC3)n[nH]c2c1` [Compound (3), 3-(6-piperidinohexylamino)indazole], the inhibition in vivo at 100 mg/kg in data set [1] (setting [3]) amounted to 30%. For the same molecule, the LD50 at 72 h in data set [2] turned out to be 143 mg/kg.

In the case of `c1ccc2c(NCCCN3CCCC3)n[nH]c2c1` [Compound (4), 3-(3-pyrrolidinopropylamino)indazole], the inhibition in vivo at 100 mg/kg in data set [1] (setting [3]) and in data set [1] (setting [4]) was 30% each time. In data set [1], the “Inhibition values compared with comparative compounds” value was “higher than that of the compound C-1”. In data set [2], the LD50 at 72 h worked out at 97 mg/kg.

For the molecule `c1ccc2c(NCCCN3CCCCCC3)n[nH]c2c1` [Compound (5), 3-(3-homopiperidinopropylamino)indazole], in data set [1] (setting [3]), the inhibition in vivo at 100 mg/kg was determined as 59%. Also, the 50% lethal dose (LD50) at 72 h in data set [2] amounted to 175 mg/kg.

Take `CC1CCCC(C)N1CCCNc1n[nH]c2ccccc12` (centres unmarked) [Compound (7), 3-{3-(2,6-dimethylpiperidino)propylamino}indazole]: in data set [1] (setting [3]), the inhibition in vivo at 100 mg/kg was 35%. Further, the 50% lethal dose (LD50) at 72 h in data set [2] amounted to 143 mg/kg.

In the case of `OC1CCN(CCCNc2n[nH]c3ccccc23)CC1` [Compound (8), 3-{3-(4-hydroxypiperidino)propylamino}indazole], the inhibition in vivo at 100 mg/kg in data set [1] (setting [3]) amounted to 47%. For the same molecule, the LD50 at 72 h in data set [2] stood at 358 mg/kg.

As for `ClC1CCN(CCCNc2n[nH]c3ccccc23)CC1` [Compound (9), 3-{3-(4-chloropiperidino)propylamino}indazole], the inhibition in vivo at 100 mg/kg in data set [1] (setting [3]) was 68%. The LD50 at 72 h in data set [2] came out at 347 mg/kg.

Consider `CCCCN(CCCC)CCCNc1n[nH]c2ccccc12` [Compound (11), 3-(3-di-n-butylaminopropylamino)indazole], for which the inhibition in vivo at 100 mg/kg in data set [1] (setting [3]) is 65%. Besides, the LD50 at 72 h in data set [2] was 115 mg/kg.

Consider `CN(C)CCNc1n[nH]c2ccccc12` [Compound (12), 3-(2-dimethylaminoethylamino)indazole], for which the inhibition in vivo at 100 mg/kg in data set [1] (setting [3]) amounted to 52%. In addition, the median lethal dose (LD50) at 72 h in data set [2] turned out to be 334 mg/kg.

Turning to `CN1CCN(CCCNc2n[nH]c3ccccc23)CC1` [Compound (13), 3-{3-(4-methylpiperazino)propylamino}indazole], the inhibition in vivo at 100 mg/kg in data set [1] (setting [3]) and in data set [1] (setting [4]) was 30% each time. The “Inhibition values compared with comparative compounds” value in data set [1] is “higher than that of the compound C-1”. Besides, the LD50 at 72 h in data set [2] was determined as 359 mg/kg.

`CC(CCNc1n[nH]c2ccccc12)N1CCCCC1` (centres unmarked) [Compound (14), 3-(3-piperidinobutylamino)indazole]: in data set [1] (setting [3]), the inhibition in vivo at 100 mg/kg was 55%. Moreover, in data set [2], the LD50 at 72 h is 95 mg/kg.

With `CC(C)CC(CCNc1n[nH]c2ccccc12)N1CCCCC1` (centres unmarked) [Compound (15), 3-(5-methyl-3-piperidinohexylamino)indazole], the inhibition in vivo at 100 mg/kg in data set [1] (setting [3]) amounted to 42%. Moreover, in data set [2], the median lethal dose (LD50) at 72 h amounted to 144 mg/kg.

As to `CCN(CC)C(C)CCNc1n[nH]c2ccccc12` (centres unmarked) [Compound (16)], the inhibition in vivo at 100 mg/kg in data set [1] (setting [3]) was determined as 63%. Also, the LD50 at 72 h in data set [2] came out at 184 mg/kg.

As for `Nc1nn(CCN2CCCCC2)c2ccccc12` [Compound (17), 1-(2-piperidinoethyl)-3-aminoindazole], the inhibition in vivo at 100 mg/kg in data set [1] (setting [3]) was 47%. For the same molecule, the LD50 at 72 h in data set [2] amounted to 143 mg/kg.

For `Nc1nn(CCCCCCN2CCCCC2)c2ccccc12` [Compound (19), 1-(6-piperidinohexyl)-3-aminoindazole], the inhibition in vivo at 100 mg/kg in data set [1] (setting [3]) stood at 29%. For the same molecule, the LD50 at 72 h in data set [2] is 144 mg/kg.

For `Nc1nn(CCCN2CCCC2)c2ccccc12` [Compound (20), 1-(3-pyrrolidinopropyl)-3-aminoindazole], the inhibition in vivo at 100 mg/kg in data set [1] (setting [3]) is 29%. Besides, the LD50 at 72 h in data set [2] was determined as 98 mg/kg.

Take `Nc1nn(CCCN2CCCCCC2)c2ccccc12` [Compound (21), 1-(3-homopiperidinopropyl)-3-aminoindazole]: the inhibition in vivo at 100 mg/kg in data set [1] (setting [3]) worked out at 58%. Moreover, the 50% lethal dose (LD50) at 72 h in data set [2] is 184 mg/kg.

Turning to `CC1CCCC(C)N1CCCn1nc(N)c2ccccc21` (centres unmarked) [Compound (23), 1-{3-(2,6-dimethylpiperidino)propyl}-3-aminoindazole], the inhibition in vivo at 100 mg/kg in data set [1] (setting [3]) was determined as 34%. In addition, the LD50 at 72 h in data set [2] worked out at 152 mg/kg.

`Nc1nn(CCCN2CCC(O)CC2)c2ccccc12` [Compound (24), 1-{3-(4-hydroxypiperidino)propyl}-3-aminoindazole]: the inhibition in vivo at 100 mg/kg in data set [1] (setting [3]) stood at 46%. Further, the LD50 at 72 h in data set [2] turned out to be 367 mg/kg.

`Nc1nn(CCCN2CCC(Cl)CC2)c2ccccc12` [Compound (25), 1-{3-(4-chloropiperidino)propyl}-3-aminoindazole]: the inhibition in vivo at 100 mg/kg in data set [1] (setting [3]) was 59%. Further, the LD50 at 72 h in data set [2] amounted to 356 mg/kg.

Take `CCN(CC)CCCn1nc(N)c2ccccc21` [Compound (26), 1-(3-diethylaminopropyl)-3-aminoindazole]: in data set [1] (setting [3]), the inhibition in vivo at 100 mg/kg worked out at 61%. In data set [2], the LD50 at 72 h turned out to be 243 mg/kg.

On to `CCCCN(CCCC)CCCn1nc(N)c2ccccc21` [Compound (27), 1-(3-di-n-butylaminopropyl)-3-aminoindazole], for which, in data set [1] (setting [3]), the inhibition in vivo at 100 mg/kg is 57%. Besides, the LD50 at 72 h in data set [2] stood at 124 mg/kg.

Turning to `CC(CCn1nc(N)c2ccccc21)N1CCCCC1` (centres unmarked) [Compound (29), 1-(3-piperidinobutyl)-3-aminoindazole], the inhibition in vivo at 100 mg/kg in data set [1] (setting [3]) worked out at 46%. Moreover, the LD50 at 72 h in data set [2] was 104 mg/kg.

With `CC(C)CC(CCn1nc(N)c2ccccc21)N1CCCCC1` (centres unmarked) [Compound (30), 1-(5-methyl-3-piperidinohexyl)-3-aminoindazole], the inhibition in vivo at 100 mg/kg in data set [1] (setting [3]) stood at 35%. Besides, the LD50 at 72 h in data set [2] was determined as 153 mg/kg.

For the molecule `CC(C)CC(CCn1nc(N)c2ccccc21)N(C)C` (centres unmarked) [Compound (31), 1-(3-dimethylamino-5-methylhexyl)-3-aminoindazole], the inhibition in vivo at 100 mg/kg in data set [1] (setting [3]) is 28%. Also, the LD50 at 72 h in data set [2] stood at 154 mg/kg.

`CN1CCN(CCCn2nc(N)c3ccccc32)CC1` [Compound (32), 1-{3-(4-methylpiperazino)propyl}-3-aminoindazole]: the inhibition in vivo at 100 mg/kg in data set [1] (setting [3]) is 27%. In addition, the LD50 at 72 h in data set [2] is 368 mg/kg.

On to `CCN(CC)CCCNc1nn(CCCN(CC)CC)c2ccccc12` [Compound (33), 1-(3-diethylaminopropyl)-3-(3-diethylaminopropylamino)indazole], for which the inhibition in vivo at 100 mg/kg in data set [1] (setting [3]) and in data set [1] (setting [4]) was 29% in each case. In data set [2], the LD50 at 72 h turned out to be 238 mg/kg.

`CCN(CC)CCCn1nc(NCCCN2CCCCC2)c2ccccc21` [Compound (34), 1-(3-diethylaminopropyl)-3-(3-piperidinopropylamino)indazole]: the inhibition in vivo at 100 mg/kg in data set [1] (setting [3]) and in data set [1] (setting [4]) was 28% each time. The LD50 at 72 h in data set [2] was 172 mg/kg.

As to `CCN(CC)CCCn1nc(NCCCCCCN2CCCCC2)c2ccccc21` [Compound (35)], the inhibition in vivo at 100 mg/kg in data set [1] (setting [3]) was determined as 21%. The median lethal dose (LD50) at 72 h in data set [2] worked out at 193 mg/kg.

For the molecule `CCCCN(CCCC)CCCNc1nn(CCCN(CC)CC)c2ccccc12` [Compound (36), 1-(3-diethylaminopropyl)-3-(3-di-n-butylaminopropylamino)indazole], in data set [1] (setting [3]), the inhibition in vivo at 100 mg/kg worked out at 31%. Besides, in data set [2], the LD50 at 72 h worked out at 179 mg/kg.

For `CCN(CC)CCCn1nc(NCCC(C)N2CCCCC2)c2ccccc21` (centres unmarked) [Compound (37), 1-(3-diethylaminopropyl)-3-(3-piperidinobutylamino)indazole], the inhibition in vivo at 100 mg/kg in data set [1] (setting [3]) came out at 27%. The median lethal dose (LD50) at 72 h in data set [2] amounted to 169 mg/kg.

On to `CCN(CC)CCCNc1nn(CCCN2CCCCC2)c2ccccc12` [Compound (38), 1-(3-piperidinopropyl)-3-(3-diethylaminopropylamino)indazole], for which the inhibition in vivo at 100 mg/kg in data set [1] (setting [3]) and in data set [1] (setting [4]) was 29% in each case. Moreover, in data set [2], the LD50 at 72 h stood at 168 mg/kg.

Regarding `CCCNc1n[nH]c2ccccc12` [Compound C-1, 3-(propylamino)indazole, reference compound], the inhibition in vivo at 100 mg/kg in data set [1] (setting [4]) was determined as 7%.

As to `CCCn1nc(N)c2ccccc21` [Compound C-2, 1-propyl-3-aminoindazole, reference compound], the inhibition in vivo at 100 mg/kg in data set [1] (setting [4]) turned out to be 7%.

For the molecule `Nc1nn(CCc2ccccc2)c2ccccc12` [Compound C-3, 1-(2-phenylethyl)-3-aminoindazole, reference compound], the inhibition in vivo at 100 mg/kg in data set [1] (setting [4]) came to 7%.

For the molecule `CN(C)CCNc1nn(-c2ccccc2)c2ccccc12` [Compound C-5, 1-phenyl-3-(2-dimethylaminoethylamino)indazole, reference compound], the “Inhibition (carrageenin edema), Table 2” value is recorded as 15% in data set [1] (25 mg/kg, oral); 18% in data set [1] (50 mg/kg, oral); 55% in data set [1] (100 mg/kg, oral).
